Assay results as given in patent publication US11311560B2, “Cyclic plasmenylethanolamines” (MED-LIFE DISCOVERIES LP, priority 2017, dated 2022).
“And” between values parts separate entries of the source, which are not always exact repeats. Equal values may be shown once. “Also recorded” adds a separate entry of the source.

System: Pex7 hypomorph/null mice
Experiment: 4 weeks oral treatment of Pex7 hypomorph/null animals: plasmalogen levels in plasma and tissues
Assay type: in vivo, mouse
Settings: 50 mg/kg oral gavage, 5 days per week
Source text: The Pex7 hypomorph/null model is a hypomorphic (B6;129S6-Pex7^tm2.3Brav/s9) mouse model on a mixed background (C57BL/6NCrl and 129S6/SvEvTac). The hypomorphic allele in Pex7 hypomorph/null was generated by inserting an inverse neo cassette into intron 2 and lox P sites surrounding exon 3. The Pex7 null allele was generated using (B6.C-Tg(cmv-cre)1Cgn/J) mouse. The Pex7 hypomorph/null mouse model has 90% survival, 0.016-0.257% of wild type Pex7 mRNA levels and 20-30% plasmalogen levels Pex7 hypomoprh/null mice (3-4 months); and wild-type animals, males and females included in treatments and behavioral tests. Pex7 hypomorph/null mice were randomly assigned, after a baseline open field test, into 3 treatment groups: PPI-1040, PPI-1011, and vehicle controls, n=6 mice per group). PPI-1011 or PPI-1040 at 50 mg/kg was given by oral gavage 5 days per week (Monday-Friday) for 4 weeks. During the treatment period, animals were weighed weekly and observed for signs of distress. The open field test was performed at the end of treatment. To avoid selection bias, data analysis was performed only at the study end. Animals were sacrificed after a 24-hour post the last dose.
Tissue samples frozen by submersion in liquid nitrogen were homogenized using the Covaris Cryoprep resulting in a fine powder. The powder was then aliquoted using anti-static polypropylene disposable milligram scoops (TWD Tradewinds) resulting in 4-6 mg of tissue per 1.4 ml Thermo matrix tubes. Weights were recorded and metabolite levels were normalized per mg of tissue. HPLC grade water (50 μl) was added into each tube and samples were snap frozen in liquid nitrogen and then stored at −80° C. until extraction. On the day of the extraction, tissue samples were thawed to room temperate and sonicated for 15 mins in an ice bath before mixing at 2000 rpm for a 5 minute and then adding 600 μL of ethyl acetate. Lipids were extracted into ethyl acetate by mixing at 1750 rpm for 1 hr followed by a 10 min centrifugation at 3500 rpm to obtain a clear ethyl acetate layer. Tissue lipid extracts were diluted into an ethyl acetate stock (brain regions diluted 1:10, peripheral tissues 1:5) containing labeled internal standard [^13C-PlsEtn (C37^13C6H74NO7P). Water (40 μL) was added to the diluted extracts and samples were stirred at 1500 rpm for 1 hr followed by a 2 min centrifugation at 3500 rpm.
Plasma extraction was performed on 20 μL aliquots in 1.4 ml Thermo matrix tubes. Lipids were extracted by adding HPLC grade water (50 μl) and ethyl acetate containing labeled internal standard [^13C-PlsEtn (C37^13C6H74NO7P) at 0.2 μg/mL (500 μL) to each plasma sample and then mixing at 1750 rpm for 1 hr followed by a 2 min centrifugation at 3500 rpm for phase separation.
A 100 μL aliquot of the ethyl acetate layer was analyzed using FI-MS/MS on a API4000™ mass spectrometer (Applied Biosystems) coupled with Agilent 1100 HPLC pump and auto sampler. Each transition was scanned for 50 ms with a total acquisition time per sample of 2 min. ethyl acetate:methanol:water ratio of 80:15:5 at a flow rate of 600 μL/min was used as the mobile phase. All standards and stable isotopes used were >95% pure and manufactured by Med-Life Discoveries LP. All the solvents used above were HPLC grade. All samples were analyzed in triplicate to control for any variation resulting from instrument variability. Stable isotope ratios for each analyte were calculated for all tissue and plasma samples (Table 2).

**Q.** What does the source list for `CC/C=C\C/C=C\C/C=C\C/C=C\C/C=C\C/C=C\CCC(=O)OC(CO/C=C\CCCCCCCCCCCCCC)COP1(=O)NCCO1` (stereo not shown) [PPI-1040, 1-(((Z)-hexadec-1-en-1-yl)oxy)-3-((2-oxido-1,3,2-oxazaphospholidin-2-yl)oxy)propan-2-yl (4Z,7Z,10Z,13Z,16Z,19Z)-docosa-4,7,10,13,16,19-hexaenoate]?
**A.** cerebellum tissue plasmalogen levels: did not show augmentation; cortical tissue plasmalogen levels: did not show augmentation; kidney plasmalogen levels: did not display a clear augmentation in any plasmalogen species; also recorded: did not display a significant level of augmentation in any plasmalogen species; liver plasmalogen levels: increases in 16:0/18:1, 16:0/18:2 and 16:0/22:6 species reaching statistical significance and 16:0/18:1. 16:0/18:2; lung plasmalogen levels: did not display a clear augmentation in any plasmalogen species; also recorded: did not display a significant level of augmentation in any plasmalogen species; plasma level of the target 16:0/22:6 plasmalogen: normalizing the levels of the target 16:0/22:6 plasmalogen; plasma levels of other 16:0 plasmalogens (re-organization at sn-2): increases in all measured 16:0 plasmalogens with the exception of 16:0/22:4; also recorded: increases in all 16:0 plasmalogens measured except 16:0/22:4; plasma plasmalogen levels (all species measured): able to augment plasmalogen levels; also recorded: did effectively augment plasmalogen levels; plasma plasmalogens containing 18:0 and 18:1 at sn-1: no augmentation was observed in any of those species; plasmalogen levels in tissues (peripheral and brain): augmentation observed in the liver, skeletal muscle and small intestine; skeletal muscle plasmalogen levels: 16:0/20:5, 16:0/22:6 and total 16:0 plasmalogen pool levels statistically increased; small intestine plasmalogen levels: 16:0/18:1 and 16:0/18:2 species reaching a statistically significant increase and only 16:0/18:1 and 16:0/18:2 reached significance; vinyl-acyl and alkyl-acyl glycerol levels: None of the alkyl-acyl or vinyl-acyl glycerol species measured were increased
